Test results published in the supplement of paper PMC10307832.

Compound: COc1cc2ncn(-c3cc(OCc4ccccc4C(F)(F)F)c(C(N)=O)s3)c2cc1OC + Cc1cc(Nc2cc(N3CCN(C)CC3)nc(Sc3ccc(NC(=O)C4CC4)cc3)n2)n[nH]1 [Tozasertib] (partner 0.1 µM)
Test: relative viability (nuclei count vs DMSO), 5 days (fraction); higher = more cells survive
How it was run: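 Lung cancer cell lines in 1536-well plates were dosed by pin tool the day after seeding, either with one drug alone or with a fixed anchor-drug dose plus five library-drug doses (not always all listed) in √10 steps. After 5 days, cells were fixed and their nuclei stained in one step (final 0.05% Triton X-100, 1% formaldehyde, 1 ug/ml Hoechst), then counted on 4× images. Relative viability is the nuclei count in treated wells divided by that in vehicle wells. Values are medians of duplicate plates.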

Row | Cell Line | relative viability (first compound 0.05 µM) | relative viability (first compound 0.1581 µM) | relative viability (first compound 0.5 µM) | relative viability (first compound 1.581 µM) | relative viability (first compound 5 µM)
1 | 201T | 1.03 | 1.09 | 0.809 | 0.426 | 0.324
2 | A-427 | 0.195 | 0.188 | 0.176 | 0.162 | 0.142
3 | ABC-1 | 0.219 | 0.223 | 0.155 | 0.251 | 0.255
4 | BEN | 0.514 | 0.498 | 0.5 | 0.56 | 0.47
5 | CAL-12T | 0.316 | 0.26 | 0.208 | 0.164 | 0.2
6 | COR-L23 | 0.213 | 0.189 | 0.13 | 0.143 | 0.139
7 | COR-L 105 | 0.43 | 0.383 | 0.392 | 0.284 | 0.277
8 | ChaGo-K-1 | 0.212 | 0.219 | 0.197 | 0.251 | 0.184
9 | EKVX | 0.371 | 0.408 | 0.311 |  | 0.229
10 | EMC-BAC-2 | 0.332 | 0.314 | 0.223 | 0.215 | 0.245
11 | EPLC-272H |  | 0.306 | 0.169 | 0.148 | 0.147
12 | H3255 | 0.563 | 0.722 | 0.451 |  | 0.41
13 | HARA | 0.091 | 0.117 | 0.117 | 0.111 | 0.0871
14 | HCC-15 | 0.509 | 0.394 | 0.138 | 0.151 | 0.139
15 | HCC-44 | 0.983 | 0.903 | 0.242 | 0.346 | 0.199
16 | HCC-78 | 0.517 | 0.345 | 0.325 | 0.222 | 0.292
17 | HCC-366 | 0.101 | 0.12 | 0.0568 | 0.0457 | 0.046
18 | HCC-827 | 0.411 | 0.397 | 0.37 | 0.344 | 0.313
19 | HOP-62 | 0.361 | 0.334 | 0.241 | 0.175 | 0.201
20 | LC-2-ad | 0.439 | 0.512 | 0.273 | 0.359 | 0.367
21 | LCLC-97TM1 | 0.254 | 0.246 | 0.148 | 0.17 | 0.162
22 | LCLC-103H | 0.395 | 0.457 | 0.33 | 0.252 | 0.217
23 | LK-2 | 0.177 | 0.174 | 0.163 | 0.162 | 0.195
24 | LOU-NH91 | 0.653 | 0.641 | 0.399 | 0.29 | 0.31

Row | Cell Line | relative viability (first compound 0.05 µM) | relative viability (first compound 0.1581 µM) | relative viability (first compound 0.5 µM) | relative viability (first compound 1.581 µM) | relative viability (first compound 5 µM)
25 | LU99A | 0.224 | 0.246 | 0.247 | 0.241 | 0.246
26 | LXF-289 | 0.192 | 0.197 | 0.145 | 0.129 | 0.107
27 | NCI-H23 | 0.349 | 0.269 | 0.218 | 0.166 | 0.13
28 | NCI-H322M | 0.492 | 0.475 | 0.511 | 0.547 | 0.495
29 | NCI-H358 | 0.0899 | 0.0976 | 0.118 | 0.0944 | 0.0929
30 | NCI-H441 | 0.71 | 0.481 | 0.232 | 0.236 | 0.336
31 | NCI-H460 | 0.497 | 0.294 | 0.0449 | 0.0359 | 0.0337
32 | NCI-H520 | 0.466 | 0.421 | 0.44 | 0.309 | 0.384
33 | NCI-H522 | 0.481 | 0.549 | 0.58 | 0.536 | 0.454
34 | NCI-H596 | 0.867 | 0.843 | 0.705 | 0.383 | 0.359
35 | NCI-H647 | 0.0011 | 0.324 | 0.218 | 0.125 | 0.104
36 | NCI-H650 | 0.66 | 0.671 | 0.35 | 0.173 | 0.237
37 | NCI-H661 | 0.37 | 0.348 | 0.327 | 0.301 | 0.321
38 | NCI-H727 | 0.639 | 0.565 | 0.659 | 0.445 | 0.42
39 | NCI-H838 | 0.245 | 0.258 | 0.189 | 0.25 | 0.204
40 | NCI-H1355 | 0.515 | 0.635 | 0.302 | 0.202 | 0.135
41 | NCI-H1395 | 0.774 | 0.898 | 0.636 | 0.36 | 0.343
42 | NCI-H1437 | 0.457 | 0.456 | 0.377 | 0.354 | 0.251
43 | NCI-H1648 | 0.455 | 0.371 | 0.157 | 0.235 | 0.182
44 | NCI-H1650 | 0.304 | 0.324 | 0.221 | 0.225 | 0.154
45 | NCI-H1651 | 0.89 | 0.706 | 0.314 | 0.182 | 0.155
46 | NCI-H1666 | 0.569 | 0.507 | 0.388 | 0.343 | 0.39
47 | NCI-H1734 | 0.272 | 0.245 | 0.226 | 0.224 | 0.17
48 | NCI-H1755 | 0.517 | 0.553 | 0.518 | 0.376 | 0.285

Row | Cell Line | relative viability (first compound 0.05 µM) | relative viability (first compound 0.1581 µM) | relative viability (first compound 0.5 µM) | relative viability (first compound 1.581 µM) | relative viability (first compound 5 µM)
49 | NCI-H1793 | 0.34 | 0.296 | 0.292 | 0.239 | 0.191
50 | NCI-H1915 | 0.499 | 0.515 | 0.352 | 0.166 | 0.142
51 | NCI-H1944 | 0.297 | 0.3 | 0.274 | 0.23 | 0.216
52 | NCI-H1975 | 0.677 | 0.453 | 0.173 | 0.138 | 0.126
53 | NCI-H1993 | 0.581 | 0.613 | 0.566 | 0.637 | 0.661
54 | NCI-H2009 | 0.625 | 0.625 | 0.353 | 0.301 | 0.227
55 | NCI-H2023 | 0.24 | 0.341 | 0.164 | 0.132 | 0.0834
56 | NCI-H2085 | 0.761 | 0.738 | 0.403 | 0.407 | 0.454
57 | NCI-H2087 | 0.255 | 0.253 | 0.144 | 0.126 | 0.114
58 | NCI-H2126 | 0.756 | 0.908 | 0.521 | 0.218 | 0.245
59 | NCI-H2170 | 0.619 | 0.745 | 0.309 | 0.193 | 0.26
60 | NCI-H2228 | 0.291 | 0.258 | 0.133 | 0.178 | 0.201
61 | NCI-H2342 | 0.611 | 0.54 | 0.333 | 0.334 | 0.337
62 | NCI-H2347 | 0.464 | 0.622 | 0.264 | 0.372 | 0.363
63 | NCI-H2405 | 0.88 | 0.803 | 0.368 | 0.325 | 0.327
64 | NCI-H3122 | 0.359 | 0.392 | 0.211 | 0.286 | 0.284
65 | PC-3 [JPC-3] | 0.892 | 0.856 | 0.4 | 0.33 | 0.369
66 | PC-14 | 0.649 | 0.715 | 0.525 | 0.163 | 0.354
67 | RERF-LC-KJ | 0.476 | 0.646 | 0.247 | 0.248 | 0.257
68 | SK-LU-1 | 0.306 | 0.301 | 0.285 | 0.225 | 0.206
69 | SK-MES-1 | 0.586 | 0.631 | 0.241 | 0.174 | 0.195
70 | SW 1573 | 0.154 | 0.179 | 0.192 | 0.174 | 0.139
71 | UMC-11 | 0.194 | 0.192 | 0.193 | 0.278 | 0.253
